Source: patent US20050209157A1, “Short bioactive peptides and methods for their use” (priority 2001, published 2005)
In brackets after ≈: the same amount, converted by molar mass. Read-outs that look alike come from different tables or passages of the source. No end group written: not given here.

How the values were obtained:
Escherichia coli 25922 = test: microbe, parasite or virus in culture; conditions: for MBC: Escherichia coli, 25922, read-out: MBC, Without peptide
Excerpt: Synergy between peptide Shiva-10 (SEQ ID NO:4) and various antimicrobial agents was investigated against Escherichia coli 25922.
Synergy between tetracycline and various peptides was investigated against Escherichia coli 25922 MBC. […] When combined with the peptides, the concentration of tetracycline was held at 1.5 ppm.

cancer cell lines = test: Anti-cancer assays, MTT, summary over the cancer cell lines; format: cell-based; conditions: X = preferred
in vitro [1] = format: cell-based, human; conditions: human, human red blood cells
fungal = test: Presently preferred antifungal peptides, selected from the MIC/MBC data; format: cell-based; conditions: X = preferred
Excerpt: The peptide's “length” is the number of amino acid residues in the sequence.

in vitro [2] = conditions: human, WI38 normal lung fibroblast cells, WI-38 LD50, Table 26, valine substitution
[3] = test system: Escherichia coli ATCC 25922; test: Antimicrobial assay I, modified protocol (tryptic soy broth), MBC; conditions: minimum bactericidal concentration, Table 4
Description: (§1) The preparation of all media, stock solutions, and dilutions took place in a laminar flow hood to prevent contamination. Bacterial cells were freshly grown on antibiotic medium 2 agar slants (pH 7.0 at 25° C.). Bacteria were suspended and diluted in antibiotic medium 3 to about 10^4 cfu/ml and used as the inoculum. Sample solutions (100 μl/well) were added to plates according to the plate layout. Inoculum (100 μl/well) was added to achieve a final concentration of 5×10^3 cfu/ml. Negative controls received 100 μl saline and 100 μl growth medium. Positive controls received 100 μl saline and 100 μl inoculum. Bacterial plates were incubated at 37° C. for 24 hours.
(§2) However, the data for Table 4 were obtained with a modified protocol wherein the medium was tryptic soy broth, inocolum strength was approximately 10^4 CFU per ml, and values determined were minimum bactericidal concentrations (MBC) or minimum fungicidal concentrations (MFC).
(§3) MBC or MFC values are in μg/mL. E. coli is Escherichia coli ATCC accession number 25922; P. aerug is Pseudomonas aeruginosa ATCC accession number 27853, S. aur. is Stapholococcus aureus ATCC accession number 25923; Candida is Candida albicans ATCC accession number 10231.

[4] = test system: Pseudomonas aeruginosa ATCC 27853; test: as above; conditions: minimum bactericidal concentration, Table 4
[5] = test system: Stapholococcus aureus ATCC 25923; test: as above; conditions: minimum bactericidal concentration, Table 4
Description: as §1, §2, §3

[6] = test system: Candida albicans ATCC 10231; test: Antimicrobial assay I, modified protocol (tryptic soy broth), MFC; conditions: minimum fungicidal concentration, Table 4
[7] = test system: MCF7 line of breast cancer cells
[8] = test system: Pseudomonas aeruginosa ATCC 9027; test: Antimicrobial assay I, MIC by OD measurement; format: cell-based
WI38 = conditions: Table 27
[9] = test system: human red blood cells (RBC); test: in vitro; format: cell-based; conditions: Table 27
[10] = pH 7, Table 26, valine substitution, read-out: Hemolysis RBC LD50
[11] = pH 7, Table 27, read-out: Hemolysis (LD50)

Compound	Anti-cancer (preferred peptide) (cancer cell lines)	HC50 at 1 h (in vitro [1]; [10])	Anti-fungal (preferred peptide) (fungal)	CC50 at 24 h (in vitro [2])	MBC E. coli A.25922 [3]	MBC P. aerug A.27853 [4]	MBC S. aur A.25923 [5]	MFC Candida A.10231 [6]	further results
FALALKALKKLKKALKKAL-NH2 [FLAK 06AM (P27; SEQ ID NO: 12)]									MBC, Without tetracycline (Escherichia coli 25922; peptide alone): 75 µg/mL; MBC, With tetracycline (Escherichia coli 25922; tetracycline held at […]): 25 µg/mL
FAKLLAKALKKLL-NH2 [compound 55]	X (Preferred anticancer peptides can be selected as having LD50 values of less than or equal to about 25 μg/ml)	20 µg/mL	X (Preferred antifungal peptides can be selected as having MIC or MBC values of less than or equal to about 25 μg/ml)	32 µg/mL	4 µg/mL	10 µg/mL	4 µg/mL	25 µg/mL	
FALALKALKKLKKALKKAL-OH [27B]	X (Preferred anticancer peptides can be selected as having LD50 values of less than or equal to about 25 μg/ml)		X (Preferred antifungal peptides can be selected as having MIC or MBC values of less than or equal to about 25 μg/ml)		40 µg/mL	10 µg/mL	>40 µg/mL	>40 µg/mL	
C[C@H]1c2cccc(O)c2C(=O)C2=C(O)[C@]3(O)C(=O)C(C(N)=O)=C(O)[C@@H](N(C)C)[C@@H]3[C@@H](O)[C@@H]21 [Doxycycline]									MBC (Escherichia coli 25922): 5 µg/mL; MBC, With peptide (Escherichia coli 25922; with 15 μg/mL peptide Shiva-10): 1 µg/mL
CC/C(=C(\c1ccccc1)c1ccc(OCCN(C)C)cc1)c1ccccc1 [Tamoxifen]									MCF7 LD50 ([7]; agent alone): 20 µg/mL; Active agent LD50 on MCF7 cells: Total conc. ([7]; peptide plus tamoxifen concentration at LD50): 20 µg/mL; Active agent LD50 on MCF7 cells: Tamox. conc. ([7]; tamoxifen concentration at LD50 (peptide with tamoxifen; tamoxifen alone in its own line)): 20 µg/mL
CC(C)C[C@H](NC(=O)[C@H](C)NC(=O)[C@H](CC(C)C)NC(=O)[C@H](C)NC(=O)[C@H](CC(C)C)NC(=O)[C@H](CCCCN)NC(=O)[C@H](C)NC(=O)[C@H](CC(C)C)NC(=O)[C@H](CCCCN)NC(=O)[C@H](CCCCN)NC(=O)[C@H](C)NC(=O)[C@H](CC(C)C)NC(=O)[C@H](CCCCN)NC(=O)[C@H](C)NC(=O)[C@H](CC(C)C)NC(=O)[C@H](CCCCN)NC(=O)[C@H](CCCCN)NC(=O)[C@H](C)NC(=O)[C@@H](N)Cc1ccccc1)C(N)=O [compound 36]	X (Preferred anticancer peptides can be selected as having LD50 values of less than or equal to about 25 μg/ml)	12 µg/mL		19 µg/mL (≈ 9.32 µM)	30 µg/mL (≈ 14.7 µM)	15 µg/mL (≈ 7.36 µM)	10 µg/mL (≈ 4.91 µM)	>40 µg/mL	
FALALKALKKALKKLKKALKKAL-OH [compound 1]	X (Preferred anticancer peptides can be selected as having LD50 values of less than or equal to about 25 μg/ml)	20 µg/mL		27 µg/mL	25 µg/mL	30 µg/mL	25 µg/mL	>50 µg/mL	
VAKLLAKLAKKLL-NH2 [compound 48]	X (Preferred anticancer peptides can be selected as having LD50 values of less than or equal to about 25 μg/ml)	130 µg/mL	X (Preferred antifungal peptides can be selected as having MIC or MBC values of less than or equal to about 25 μg/ml)	160 µg/mL	8 µg/mL	25 µg/mL	4 µg/mL	10 µg/mL	P. aerug (MIC) [8]: 5 µg/mL; HC50 at 1 h (in vitro [1]; [11]): 200 µg/mL; WI38 LD50 (WI38): 160 µg/mL
FAKLLAKLAKKVL-NH2 [compound 124]	X (Preferred anticancer peptides can be selected as having LD50 values of less than or equal to about 25 μg/ml)	55 µg/mL	X (Preferred antifungal peptides can be selected as having MIC or MBC values of less than or equal to about 25 μg/ml)	21 µg/mL	10 µg/mL	40 µg/mL	8 µg/mL	15 µg/mL	P. aerug (MIC) [8]: 100 µg/mL; HC50 at 1 h (in vitro [1]; [11]): 300 µg/mL; WI38 LD50 (WI38): 21 µg/mL
FALAKLAKKAKAKLKKALKAL-NH2 [compound 26]	X (Preferred anticancer peptides can be selected as having LD50 values of less than or equal to about 25 μg/ml)		X (Preferred antifungal peptides can be selected as having MIC or MBC values of less than or equal to about 25 μg/ml)		>80 µg/mL	>40 µg/mL	>40 µg/mL	>50 µg/mL	
FAKLLALALKLKL-NH2 [compound 94]	X (Preferred anticancer peptides can be selected as having LD50 values of less than or equal to about 25 μg/ml)				>50 µg/mL	>50 µg/mL	>50 µg/mL	>50 µg/mL	
FALALKKALKALKKAL-NH2 [compound 34]	X (Preferred anticancer peptides can be selected as having LD50 values of less than or equal to about 25 μg/ml)		X (Preferred antifungal peptides can be selected as having MIC or MBC values of less than or equal to about 25 μg/ml)		15 µg/mL	15 µg/mL	40 µg/mL	>40 µg/mL	
FAKLLAKLAKKLL-NH2 [compound 43]	X (Preferred anticancer peptides can be selected as having LD50 values of less than or equal to about 25 μg/ml)	20 µg/mL	X (Preferred antifungal peptides can be selected as having MIC or MBC values of less than or equal to about 25 μg/ml)	25 µg/mL	8 µg/mL	15 µg/mL	4 µg/mL	15 µg/mL	P. aerug (MIC) [8]: 100 µg/mL; Hemolysis (LD50) [9]: 20 µg/mL; WI38 LD50 (WI38): 25 µg/mL
NCC[C@H](O)C(=O)N[C@@H]1C[C@H](N)[C@@H](O[C@H]2O[C@H](CN)[C@@H](O)[C@H](O)[C@H]2O)[C@H](O)[C@H]1O[C@H]1O[C@H](CO)[C@@H](O)[C@H](N)[C@H]1O [Amikacin]									MBC (Escherichia coli 25922): 150 µg/mL; MBC, With peptide (Escherichia coli 25922; with 5 μg/mL peptide Shiva-10): 50 µg/mL
NC[C@@H]1O[C@H](O[C@H]2[C@@H](O)[C@H](O[C@@H]3[C@@H](O)[C@H](N)C[C@H](N)[C@H]3O[C@H]3O[C@H](CN)[C@@H](O)[C@H](O)[C@H]3N)O[C@@H]2CO)[C@H](N)[C@@H](O)[C@@H]1O [Neomycin]									MBC, Without peptide (Escherichia coli 25922; agent alone): 100 µg/mL; MBC, With peptide (Escherichia coli 25922; with 5 μg/mL peptide Shiva-10): 5 µg/mL
FAKALAKLAKKLL-NH2 [compound 92]	X (Preferred anticancer peptides can be selected as having LD50 values of less than or equal to about 25 μg/ml)		X (Preferred antifungal peptides can be selected as having MIC or MBC values of less than or equal to about 25 μg/ml)		40 µg/mL	25 µg/mL	15 µg/mL	25 µg/mL	
